Measured values as given in patent US20260265244A1, “HETEROCYCLIC COMPOUNDS AS STING ANTAGONISTS” (Boehringer Ingelheim International GmbH, priority 2022, published 2026).

Test system: STING inhibition in human whole blood (IFNα2α production)
Experiment: Human whole blood assay (HWBA): cGAMP-stimulated IFNα2α production
Type: cell-based
Details: Homo sapiens
Protocol: For the detection of STING inhibition in physiological environment human whole blood was stimulated by the cyclic dinucleotide cGAMP. Pathway activity was monitored by measuring the IFNα2α production.
Assay method: Compounds were delivered as 10 mM DMSO solution and serial diluted and transferred to the 96-well Cell culture Plate (Corning #3595), prefilled with 20 μl OptiMEM (Gibco #11058-021) in each well, using an Echo acoustic dispenser. Typically, 8 concentrations were used with the highest concentration at 10 μM in the final assay volume followed by ~1:5 dilution steps. DMSO concentration was set to 0.1% in the final assay volume. The 96 well assay plate contained 9 test compounds, a reference compound and DMSO in control wells.
Collection of human whole blood from 3 or more healthy donors (male or female, no medication for 7 days, exception contraceptive and thyroxine) as Na-citrate blood (e.g. 3.8% in Monovettes from Sarstedt) is conducted in parallel. Whole blood was kept at room temperature for a maximum of 3 hours after collection until use in the assay.
160 μl of the whole blood samples were transferred to each well of the 96-well assay plates filled with compound/OptiMEM. All assay plates are prepared as duplicates with blood from different donors. Blood plates were kept at room temperature for 60 minutes and continuous shaking with 450 rpm, covered with the lid, but not sealed.
A 10× cGAMP assay solution was diluted from a 2 mM stock solution in 1×HBSS immediately before use at room temperature. 20 μl of the 10× cGAMP/HBSS were added to all compound and all high control wells, whereas HBSS only was added to all low control wells.
After covering assay plates with aera seals and the lid, blood plates were kept at room temperature for 30 minutes and continuous shaking with 450 rpm, followed by an overnight incubation of 22 h at 37° C. in the incubator, without shaking.
For the detection of IFNα-2α in human plasma, the biotinylated capture antibody (Antibody set IFNA2, Meso Scale Diagnostics #B21VH-3, including coating and capture antibody) was diluted 1:17.5 in Diluent 100 (Meso Scale Diagnostics #R50AA-4, according to the manufacturer. U-Plex MSD GOLD 96-well Small Spot Streptavidin SECTOR Plates (Meso Scale Diagnostics #L45SA-5) were coated with 25 μl diluted capture antibody. Coated plates were incubated for 60 min at room temperature under continuous shaking at 700 rpm. MSD IFNα-2α plates were washed three times with 150 μl wash buffer (1×HBSS, 0.05% Tween).
After blocking the plates with 100 μl block solution/well (1×HBSS with 0.2% Tween, 2% BSA) for 60 min at room temperature and continuous shaking at 700 rpm, plates were emptied as dry as possible by dumping just before continuing with the human plasma. Whole Blood assay plates were centrifuged at 1600 rpm for 10 minutes. 25 μl of supernatant was transferred with a pipetting robotics from each whole blood plate to the corresponding IFNα-2α plate. Plates were sealed with microplate seals and kept at room temperature again under continuous shaking at 700 rpm for two hours. Next MSD IFNα-2α plates were washed three times with 150 μl wash buffer (1×HBSS, 0.05% Tween), before adding 25 μl MSD SULFO-TAG IFNα-2α Antibody solution (1:100 diluted in Diluent 3 (Meso Scale Diagnostics #R50AP-2) to each well of the plates. Afterwards plates were sealed with microplate seals and kept at room temperature again under continuous shaking at 700 rpm for two hours. Finally MSD IFNα-2α plates were washed three times with 150 μl wash buffer (1×HBSS, 0.05% Tween). 150 μl 2×Read buffer was added to each well and plates were immediately measured with the MSD Sector S600 Reader using the vendor barcode.
Data evaluation and calculation: For data evaluation and calculation, % control calculation of each well was based on the mean of high (cGAMP stimulated control) and mean of low (unstimulated control) controls by using the following formula: […]

For `Cc1nc2nn(Cc3cnn(C)c3)cc2cc1-n1nc(-c2cccc3nn(C[C@H](O)c4ccccc4)cc23)c(C(C)C)c1C` [Example 24, (1R)-2-[4-(5-methyl-1-{6-methyl-2-[(1-methyl-1H-pyrazol-4-yl)methyl]-2H-pyrazolo[3,4-b]pyridin-5-yl}-4-(propan-2-yl)-1H-pyrazol-3-yl)-2H-indazol-2-yl]-1-phenylethan-1-ol], the IC50 was 0.092 µM.

`Cc1ccc([C@@H](O)Cn2cc3c(-c4nc(-c5cc6cn(C)nc6nc5C(C)C)n(C)c4C4CC4)cccc3n2)cc1` [Example 25, (1R)-2-(4-{5-cyclopropyl-1-methyl-2-[2-methyl-6-(propan-2-yl)-2H-pyrazolo[3,4-b]pyridin-5-yl]-1H-imidazol-4-yl}-2H-indazol-2-yl)-1-(4-methylphenyl)ethan-1-ol] gave an IC50 of 0.097 µM.

For `Cc1c(C(C)C)c(-c2cccc3nn(C[C@H](O)c4ccccc4)cc23)nn1-c1cc2cn(C)nc2nc1CN1CCOCC1` [Example 26, (1R)-2-[4-(5-methyl-1-{2-methyl-6-[(morpholin-4-yl)methyl]-2H-pyrazolo[3,4-b]pyridin-5-yl}-4-(propan-2-yl)-1H-pyrazol-3-yl)-2H-indazol-2-yl]-1-phenylethan-1-ol], the IC50 was 0.11 µM.

For `Cc1nc2nn(C)cc2cc1-n1nc(-c2cccc3nn(C[C@H](OCF)c4ccccc4)cc23)c(C(C)C)c1C` [Example 27, 4-(1-{2,6-dimethyl-2H-pyrazolo[3,4-b]pyridin-5-yl}-5-methyl-4-(propan-2-yl)-1H-pyrazol-3-yl)-2-[(2R)-2-(fluoromethoxy)-2-phenylethyl]-2H-indazole], the IC50 was 0.11 µM.

In the case of `Cn1c(-c2cc3cn(CCCN4CCCC4=O)nc3nc2C2CC2)nc(-c2cccc3nn(C[C@H](O)c4ccccc4)cc23)c1C1CC1` [Example 28, 1-{3-[6-cyclopropyl-5-(5-cyclopropyl-4-{2-[(2R)-2-hydroxy-2-phenylethyl]-2H-indazol-4-yl}-1-methyl-1H-imidazol-2-yl)-2H-pyrazolo[3,4-b]pyridin-2-yl]propyl}pyrrolidin-2-one], the IC50 is reported as 0.11 µM.

With `Cc1c(C2CC2)c(-c2cccc3nn(C[C@H](O)c4ccccc4)cc23)nn1-c1cc2cn(C)nc2nc1C1CC1` [Example 29, (1R)-2-[4-(4-cyclopropyl-1-{6-cyclopropyl-2-methyl-2H-pyrazolo[3,4-b]pyridin-5-yl}-5-methyl-1H-pyrazol-3-yl)-2H-indazol-2-yl]-1-phenylethan-1-ol] the IC50 was 0.11 µM.

`CCO[C@@H](Cn1cc2c(-c3nn(-c4cc5cn(C)nc5nc4C)c(C)c3C(C)C)cccc2n1)c1ccccc1` [Example 30, 4-(1-{2,6-dimethyl-2H-pyrazolo[3,4-b]pyridin-5-yl}-5-methyl-4-(propan-2-yl)-1H-pyrazol-3-yl)-2-[(2R)-2-ethoxy-2-phenylethyl]-2H-indazole] was tested, and the IC50 was 0.11 µM.

For `Cc1nc2nn(CCCO)cc2cc1-n1nc(-c2cccc3nn(C[C@H](O)c4ccccc4)cc23)c(C(C)C)c1C` [Example 32, 3-[5-(3-{2-[(2R)-2-hydroxy-2-phenylethyl]-2H-indazol-4-yl}-5-methyl-4-(propan-2-yl)-1H-pyrazol-1-yl)-6-methyl-2H-pyrazolo[3,4-b]pyridin-2-yl]propan-1-ol], the IC50 was 0.11 µM.

`CC(C)n1cc2cc(-c3nc(-c4cccc5nn(C[C@H](O)c6ccccc6)cc45)c(C4CC4)n3C)c(C3CC3)nc2n1` [Example 33, (1R)-2-(4-{5-cyclopropyl-2-[6-cyclopropyl-2-(propan-2-yl)-2H-pyrazolo[3,4-b]pyridin-5-yl]-1-methyl-1H-imidazol-4-yl}-2H-indazol-2-yl)-1-phenylethan-1-ol] showed an IC50 of 0.11 µM.

With `Cn1cc2cc(-c3nc(-c4cccc5nn(C[C@H](O)c6ccccc6)cc45)c(C4CC4)n3C)c(OC(F)F)cc2n1` [Example 34, (1R)-2-(4-{5-cyclopropyl-2-[6-(difluoromethoxy)-2-methyl-2H-indazol-5-yl]-1-methyl-1H-imidazol-4-yl}-2H-indazol-2-yl)-1-phenylethan-1-ol] the IC50 was 0.12 µM.

In the case of `Cc1c(C2CC2)c(-c2c(F)ccc3nn(C[C@H](O)c4ccccc4)cc23)nn1-c1cc2cn(C)nc2nc1C1CC1` [Example 35, (1R)-2-[4-(4-cyclopropyl-1-{6-cyclopropyl-2-methyl-2H-pyrazolo[3,4-b]pyridin-5-yl}-5-methyl-1H-pyrazol-3-yl)-5-fluoro-2H-indazol-2-yl]-1-phenylethan-1-ol], the IC50 is reported as 0.13 µM.

`CNC(=O)CO[C@@H](Cn1cc2c(-c3nn(-c4cc5cn(C)nc5nc4C)c(C)c3C(C)C)cccc2n1)c1ccccc1` [Example 36, 2-[(1R)-2-[4-(1-{2,6-dimethyl-2H-pyrazolo[3,4-b]pyridin-5-yl)-5-methyl-4-(propan-2-yl)-1H-pyrazol-3-yl)-2H-indazol-2-yl]-1-phenylethoxy]-N-methylacetamide] was tested, and the IC50 was 0.13 µM.

For `Cc1nc2nn(CCO)cc2cc1-n1nc(-c2cccc3nn(C[C@H](O)c4ccccc4)cc23)c(C(C)C)c1C` [Example 37, (1R)-2-(4-{1-[2-(2-hydroxyethyl)-6-methyl-2H-pyrazolo[3,4-b]pyridin-5-yl]-5-methyl-4-(propan-2-yl)-1H-pyrazol-3-yl}-2H-indazol-2-yl)-1-phenylethan-1-ol], the IC50 was 0.13 µM.

`Cc1nc2nn(CCN(C)C)cc2cc1-n1nc(-c2cccc3nn(C[C@H](O)c4ccccc4)cc23)c(C(C)C)c1C` [Example 39, (1R)-2-[4-(1-{2-[2-(dimethylamino)ethyl]-6-methyl-2H-pyrazolo[3,4-b]pyridin-5-yl}-5-methyl-4-(propan-2-yl)-1H-pyrazol-3-yl)-2H-indazol-2-yl]-1-phenylethan-1-ol] showed an IC50 of 0.13 µM.

`Cc1nc2nn(CCCN3CCC(F)(F)C3)cc2cc1-n1nc(-c2cccc3nn(C[C@H](O)c4ccccc4)cc23)c(C(C)C)c1C` [Example 40, (1R)-2-[4-(1-{2-[3-(3,3-difluoropyrrolidin-1-yl)propyl]-6-methyl-2H-pyrazolo[3,4-b]pyridin-5-yl}-5-methyl-4-(propan-2-yl)-1H-pyrazol-3-yl)-2H-indazol-2-yl]-1-phenylethan-1-ol] showed an IC50 of 0.14 µM.

`Cn1cc2cc(-c3nc(-c4cccc5nn(C[C@H](O)c6ccc(OCCC(C)(C)O)cc6)cc45)c(C4CC4)n3C)c(C3CC3)nc2n1` [Example 41, 4-{4-[(1R)-2-[4-(5-cyclopropyl-2-{6-cyclopropyl-2-methyl-2H-pyrazolo[3,4-b]pyridin-5-yl}-1-methyl-1H-imidazol-4-yl)-2H-indazol-2-yl]-1-hydroxyethyl]phenoxy}-2-methylbutan-2-ol] gave an IC50 of 0.14 µM.

`CNCc1nc2nn(C)cc2cc1-n1nc(-c2cccc3nn(C[C@H](O)c4ccccc4)cc23)c(C(C)C)c1C` [Example 42, (1R)-2-[4-(5-methyl-1-{2-methyl-6-[(methylamino)methyl]-2H-pyrazolo[3,4-b]pyridin-5-yl}-4-(propan-2-yl)-1H-pyrazol-3-yl)-2H-indazol-2-yl]-1-phenylethan-1-ol] was tested, and the IC50 was 0.14 µM.

With `Cc1nc2nn(C)cc2cc1-n1nc(-c2cccc3nn(C[C@H](O)c4ccc(F)c(F)c4)cc23)c(C(C)C)c1C` [Example 44, (1R)-1-(3,4-difluorophenyl)-2-[4-(1-{2,6-dimethyl-2H-pyrazolo[3,4-b]pyridin-5-yl}-5-methyl-4-(propan-2-yl)-1H-pyrazol-3-yl)-2H-indazol-2-yl]ethan-1-ol] the IC50 was 0.14 µM.

With `Cc1nc2nn(CCCCN3CCN(C)CC3)cc2cc1-n1nc(-c2cccc3nn(C[C@H](O)c4ccccc4)cc23)c(C(C)C)c1C` [Example 45, (1R)-2-[4-(5-methyl-1-{6-methyl-2-[4-(4-methylpiperazin-1-yl)butyl]-2H-pyrazolo[3,4-b]pyridin-5-yl}-4-(propan-2-yl)-1H-pyrazol-3-yl)-2H-indazol-2-yl]-1-phenylethan-1-ol] the IC50 was 0.14 µM.
